Assay results published in ChEMBL document CHEMBL1201862, “PubChem BioAssay data set” (2004).
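48-hour exposure; five concentrations; linearly interpolated endpoints. GI50 marks 50% less growth.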 Calls of active or inactive are those of the source. No stated cut-off is given here; in the data, active = GI50 up to about 1.1 µM and inactive = higher.

Assays:
Assay in all cases: NCI anticancer screen, dose series, 48 h
BT-549 = tested on: BT-549
COLO 205 = tested on: COLO 205
HCC 2998 = tested on: HCC 2998
HCT-116 = tested on: HCT-116
HL-60 = tested on: HL-60
K562 = tested on: K562
MDA-N = tested on: MDA-N
NCI-H23 = tested on: NCI-H23
NCI/ADR-RES = tested on: NCI/ADR-RES
OVCAR-4 = tested on: OVCAR-4
OVCAR-5 = tested on: OVCAR-5
OVCAR-8 = tested on: OVCAR-8
RXF 393 = tested on: RXF 393
SF-268 = tested on: SF-268
SF-295 = tested on: SF-295
SK-MEL-28 = tested on: SK-MEL-28
SK-MEL-2 = tested on: SK-MEL-2
SK-OV-3 = tested on: SK-OV-3
SNB-19 = tested on: SNB-19
SW-620 = tested on: SW-620

| SMILES | GI50 (BT-549) | GI50 (COLO 205) | GI50 (HCC 2998) | GI50 (HCT-116) | GI50 (HL-60) | GI50 (K562) | GI50 (MDA-N) | GI50 (NCI-H23) | GI50 (NCI/ADR-RES) | GI50 (OVCAR-4) | GI50 (OVCAR-5) | GI50 (OVCAR-8) | GI50 (RXF 393) | GI50 (SF-268) | GI50 (SF-295) | GI50 (SK-MEL-28) | GI50 (SK-MEL-2) | GI50 (SK-OV-3) | GI50 (SNB-19) | GI50 (SW-620) |
| --- | --- | --- | --- | --- | --- | --- | --- | --- | --- | --- | --- | --- | --- | --- | --- | --- | --- | --- | --- | --- |
| C[Si](C)(C)C#CCOC=C1CC1 | > 100 µM (inactive) | > 100 µM (inactive) | > 100 µM (inactive) | > 100 µM (inactive) | 35.2 µM (inactive) | > 100 µM (inactive) | > 100 µM (inactive) | > 100 µM (inactive) | > 100 µM (inactive) | > 100 µM (inactive) | > 100 µM (inactive) | > 100 µM (inactive) | 3.45 µM (inactive) | > 100 µM (inactive) | > 100 µM (inactive) | > 100 µM (inactive) | > 100 µM (inactive) | > 100 µM (inactive) | > 100 µM (inactive) | > 100 µM (inactive) |
| Cc1ccc(/C=C2\CN(C)CC3=C2OC(N)=C(C#N)C3c2ccc(C)cc2)cc1 (stereo not given) | 16.7 µM (inactive) | 17 µM (inactive) | 15.2 µM (inactive) | 12.6 µM (inactive) | < 0.01 µM (active) | 11.2 µM (inactive) | 17.2 µM (inactive) | 16 µM (inactive) | 20.7 µM (inactive) | 12.2 µM (inactive) | 22.8 µM (inactive) | 13.4 µM (inactive) | 11.3 µM (inactive) | 30.1 µM (inactive) | 16.8 µM (inactive) | 27.8 µM (inactive) | 39.9 µM (inactive) | 9.84 µM (inactive) | 26.4 µM (inactive) | 32 µM (inactive) |
| O=C1c2ccccc2C(=O)c2nn(N=P(CP(=Nn3nc4c(n3)C(=O)c3ccccc3C4=O)(c3ccccc3)c3ccccc3)(c3ccccc3)c3ccccc3)nc21 | > 100 µM (inactive) | > 100 µM (inactive) | > 100 µM (inactive) | > 100 µM (inactive) | 36.3 µM (inactive) | > 100 µM (inactive) | > 100 µM (inactive) | > 100 µM (inactive) | > 100 µM (inactive) | > 100 µM (inactive) | > 100 µM (inactive) | > 100 µM (inactive) | > 100 µM (inactive) | > 100 µM (inactive) | > 100 µM (inactive) | > 100 µM (inactive) | > 100 µM (inactive) | > 100 µM (inactive) | > 100 µM (inactive) | > 100 µM (inactive) |
| COc1ccc(C(=O)CCN(C)C)c2ccccc12 | 19.3 µM (inactive) | 18.6 µM (inactive) | 18 µM (inactive) | 21.8 µM (inactive) | 15.6 µM (inactive) | 29.7 µM (inactive) | 21.1 µM (inactive) | 20.8 µM (inactive) | 35.9 µM (inactive) | 24.3 µM (inactive) | 55.6 µM (inactive) | 19.5 µM (inactive) | 21.3 µM (inactive) | 21.9 µM (inactive) | > 100 µM (inactive) | 24.8 µM (inactive) | 19.5 µM (inactive) | > 100 µM (inactive) | > 93.5 µM (inactive) | 18 µM (inactive) |
| Cc1nnc(N)s/c1=N/O | > 100 µM (inactive) | > 100 µM (inactive) | > 100 µM (inactive) | > 100 µM (inactive) | > 100 µM (inactive) | > 100 µM (inactive) | > 100 µM (inactive) | > 100 µM (inactive) | > 100 µM (inactive) | > 100 µM (inactive) | > 100 µM (inactive) | > 100 µM (inactive) | > 100 µM (inactive) | > 100 µM (inactive) | > 100 µM (inactive) | > 100 µM (inactive) | > 100 µM (inactive) | > 100 µM (inactive) | > 100 µM (inactive) | > 100 µM (inactive) |
| CC(=O)OCC1OC(OC2CC3C(C)(C)C(OC(C)=O)CC[C@]3(C)C3CCC45CC4(CCC5[C@@H](C)C[C@H](O)C(O)C(C)(C)O)[C@]23C)C(O)C(O)C1O (stereo not given in full) | > 10 µM (inactive) | > 10 µM (inactive) | > 10 µM (inactive) | > 10 µM (inactive) | 9.44 µM (inactive) | 9.12 µM (inactive) | > 10 µM (inactive) | > 10 µM (inactive) | > 10 µM (inactive) | > 10 µM (inactive) | > 10 µM (inactive) | > 10 µM (inactive) | > 10 µM (inactive) | > 10 µM (inactive) | > 10 µM (inactive) | > 10 µM (inactive) | 5.65 µM (inactive) | > 10 µM (inactive) | > 10 µM (inactive) | > 10 µM (inactive) |
| CC(=O)NC(Cc1ccccc1)NC(=O)O (stereo not given) | > 100 µM (inactive) | > 100 µM (inactive) | > 100 µM (inactive) | > 100 µM (inactive) | > 100 µM (inactive) | > 100 µM (inactive) | > 100 µM (inactive) | > 100 µM (inactive) | > 100 µM (inactive) | > 100 µM (inactive) | > 100 µM (inactive) | > 100 µM (inactive) | > 100 µM (inactive) | > 100 µM (inactive) | > 100 µM (inactive) | > 100 µM (inactive) | > 100 µM (inactive) | > 100 µM (inactive) | > 100 µM (inactive) | > 100 µM (inactive) |
